We go through 49 compounds from the SangsterLogP compilation.

SMILES strings stand for the structures.

One series is described as follows: method code SF-AS, from DOI: 10.1248/bpb1978.4.759, PMID: 7320829.
Conditions: not given
With `Cc1ccccc1S(=O)(=O)N1C(=O)NC(=O)C1(c1ccccc1)c1ccccc1`, the logP (in general, a log measure of how a compound divides between an organic and an aqueous phase) is 4.

On to `CC1(C)NC(=O)NC1=O`, for which the logP was -0.48.

`O=C1NC(=O)C(c2ccccc2)(c2ccc(O)cc2)N1` (centres undefined) yielded a logP of 1.72.

The compound `O=C1NC(=O)C(c2ccccc2)(c2ccccc2)N1S(=O)(=O)c1ccc(Cl)cc1` yielded a logP of 3.48.

`CCC1(c2ccccc2)C(=O)NC(=O)N1S(=O)(=O)c1ccccc1` (centres undefined) had a logP of 2.44.

Still in this series, the particulars now being: pH 7.0.
Compound `O=C1NC(=O)C(c2ccccc2)(c2ccccc2)N1S(=O)(=O)c1ccccc1` had a logD of 1.93.

A short description of the next series: method code SF-HPLC, from Peips, M.; Sikk, P.; Aaviksaar, A. (1986). Hydrophobic interaction in the active sites of serine proteases from thermoactinomycetes. Org. React., 23(3)261-271. Conditions: pH 2.2.
For the compound `COC(=O)[C@H](C)NC(C)=O`, the logD was -0.57.

`CCCCCCC(NC(C)=O)C(=O)OC` (centres undefined) displayed a logD of 1.7.

In turn, `COC(=O)[C@H](Cc1ccc(O)cc1)NC(C)=O` had a logD of 0.33.

On to `CCC(NC(C)=O)C(=O)OC` (centres undefined), for which the logD was -0.17.

For the compound `COC(=O)[C@H](CC(C)C)NC(C)=O`, the logD was 0.84.

`CCCCC(NC(C)=O)C(=O)O` (centres undefined) displayed a logD of 0.33.

Test in a further series: not given
Conditions: not given
On to `C=CCOc1ccccc1OCC(CNC(C)C)OC(=O)c1ccc([N+](=O)[O-])cc1` (centres undefined), for which the logP worked out at 5.22.

In turn, `C=CCOc1ccccc1OCC(CNC(C)C)OC(=O)C(C)C` (centres undefined) registered a logP of 3.77.

`C=CCOc1ccccc1OCC(CNC(C)C)OC(=O)C(C)(C)C` (centres undefined) gave a lipophilicity (logP) of 3.54.

In the case of `C=CCOc1ccccc1OCC(CNC(C)C)OC(=O)C1CC1` (centres undefined), the logP came out at 3.01.

Take `C=CCOc1ccccc1OCC(CNC(C)C)OC(=O)CC` (centres undefined): the logP turned out to be 3.76.

`C=CCOc1ccccc1OCC(CNC(C)C)OC(C)=O` (centres undefined): the logP worked out at 3.82.

`C=CCOc1ccccc1OCC(CNC(C)C)OC(=O)CCC` (centres undefined) gave a lipophilicity (logP) of 3.95.

Test in another series: not given
Conditions: not given
This is another data set of the same source.
For `Brc1cc2oc3ccc(Br)c(Br)c3c2cc1Br`, the logP was determined as 6.2.

As for `Brc1cc2oc3c(Br)c(Br)c(Br)cc3c2cc1Br`, the logP was found to be 7.04.

For the compound `Brc1cc2oc3cc(Br)c(Br)c(Br)c3c2cc1Br`, the logP was 7.2.

For `Clc1cc2oc3cc(Cl)c(Cl)cc3c2cc1Cl`, the logP is 5.83.

As to `Clc1cc2oc3c(Cl)cc(Cl)c(Cl)c3c2c(Cl)c1Cl`, the logP came to 6.82.

`Brc1cc2oc3cc(Br)c(Br)cc3c2cc1Br` returned a logP of 5.98.

Turning to `Brc1cc2c(cc1Br)Oc1cc(Br)c(Br)cc1O2`, the logP turned out to be 6.5.

Test in another series: not given
Conditions: not given
This is another data set of the same source.
`O=C(CCO[N+](=O)[O-])Oc1ccccc1C(=O)O` gave a logP of 1.6.

`CC(C)(CCC(CO[N+](=O)[O-])O[N+](=O)[O-])C(=O)Oc1ccccc1C(=O)O` (centres undefined): the logP is 3.33.

`O=C(CCCCCCO[N+](=O)[O-])Oc1ccccc1C(=O)O` had a lipophilicity (logP) of 3.22.

`O=C(CCCC(CO[N+](=O)[O-])O[N+](=O)[O-])Oc1ccccc1C(=O)O` (centres undefined): the lipophilicity (logP) stood at 2.62.

`O=C(CCCCO[N+](=O)[O-])Oc1ccccc1C(=O)O` showed a logP of 2.21.

In the case of `CC(C)(CO[N+](=O)[O-])C(=O)Oc1ccccc1C(=O)O`, the lipophilicity (logP) is 2.32.

In turn, `O=C(CCCCC(CO[N+](=O)[O-])O[N+](=O)[O-])Oc1ccccc1C(=O)O` (centres undefined) came in with a logP of 2.97.

The nature of the next series: method code SF-AS, from Kishida, K.; Otori, T. (1980). A quantitative study on the relationship between transcorneal permeability of drugs and their hydrophobicity. Jpn J Ophthalmol, 24(3)251-259. Conditions: pH 7.4.
`CC(=O)c1ccc(N)cc1` displayed a logD of 0.83.

In the case of `CCc1ccc(N)cc1`, the logD was found to be 1.96.

On to `COc1ccc(OC)c(N)c1`, for which the logD is 1.2.

In turn, `Nc1ccc(CO)cc1` came in with a logD of -0.22.

Turning to `Nc1ccc(Cc2ccc(N)cc2)cc1`, the logD is 1.62.

`Nc1ccc(CCO)cc1`: the logD came out at 0.1.

Regarding `CCOc1ccc(N)cc1`, the logD was 1.24.

The next series in a line: method code SF-AS, from PMID: 7149911. The note with it: pH 8.9.
Consider `CN(N=O)C(=O)Oc1cccc2ccccc12`, for which the logD was 2.85.

Compound `CC(C)N(N=O)C(=O)Nc1ccccc1` had a logD of 2.5.

The compound `CN(N=O)C(=O)Nc1ccc(F)cc1` registered a logD of 1.88.

Another series in a line: method code SF-AS, from DOI: 10.1016/0041-008x(67)90079-8.
Conditions: not given
Compound `Clc1cccnc1Cl` gave a logP of 2.11.

The compound `Clc1cncc(Cl)c1` returned a logP of 2.56.

On to `Clc1ccc(Cl)c(Cl)n1`, for which the logP came out at 2.77.

Compound `Clc1cccc(Cl)n1` returned a logP of 2.15.

For `Clc1cnc(Cl)c(Cl)c1`, the logP worked out at 3.11.

`Clc1cc(Cl)nc(Cl)c1`: the logP is 2.68.
